Laboratory results as given in US7064120B2, “Tricyclic pyridyl carboxamides and derivatives thereof tocolytic oxytocin receptor antagonists” (Wyeth, priority 2001, dated 2006).

Target: T1, human oxytocin receptor (Homo sapiens, UniProt P30559)
T1 construct: host or cells: CHO cells, stably transfected (pcDNA3.1 vector)
T1 sequence (P30559 1-389): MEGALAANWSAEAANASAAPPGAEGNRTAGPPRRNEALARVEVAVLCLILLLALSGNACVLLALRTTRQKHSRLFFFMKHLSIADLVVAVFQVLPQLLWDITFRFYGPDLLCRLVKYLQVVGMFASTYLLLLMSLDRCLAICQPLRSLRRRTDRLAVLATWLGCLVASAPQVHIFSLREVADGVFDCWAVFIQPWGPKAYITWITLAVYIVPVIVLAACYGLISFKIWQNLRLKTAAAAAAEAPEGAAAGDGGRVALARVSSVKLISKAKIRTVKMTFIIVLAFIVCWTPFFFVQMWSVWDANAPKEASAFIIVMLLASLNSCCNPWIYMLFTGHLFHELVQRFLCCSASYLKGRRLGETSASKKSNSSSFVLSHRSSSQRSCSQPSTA
Test: Oxytocin binding in CHO cell membranes expressing human oxytocin receptors ([3H]oxytocin radioligand binding)
Conditions: 100 nM, read-out: OT % inhibition @ 100 nM
Method in brief: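 CHO membranes expressing human oxytocin receptor (25–50 μg protein/well) incubated 60 min at room temperature with [3H]oxytocin in Tris-HCl pH 7.4 buffer with MgCl2, BSA and protease inhibitors. Filtration and scintillation counting; reported as % inhibition at a stated concentration or nM IC50.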

inhibition at 0.1 µM [%] | Structure (SMILES)
96 | COc1ccccc1-c1ccc(C(=O)N2Cc3ccc(C(=O)N4CCCCC4c4cccnc4)n3Cc3ccccc32)cc1 (stereo not shown) [Example 139, {10-[(2′-Methoxy-[1,1′-biphenyl]-4-yl)carbonyl]-10,11-dihydro-5H-pyrrolo[2,1-c][1,4]benzodiazepin-3-yl}[2-(3-pyridinyl)-1-piperidinyl]methanone]
95 | COc1cc(-c2ccccc2C)c(Cl)cc1C(=O)N1Cc2ccc(C(=O)N3CCCCC3c3cccnc3)n2Cc2ccccc21 (stereo not shown) [Example 140, {10-[(6-Chloro-3-methoxy-2′-methyl-[1,1′-biphenyl]-4-yl)carbonyl]-10,11-dihydro-5H-pyrrolo[2,1-c][1,4]benzodiazepin-3-yl}[2-(3-pyridinyl)-1-piperidinyl]methanone]
96 | COc1ccccc1-c1ccc(C(=O)N2Cc3ccc(C(=O)N4CCCCC4c4cccnc4)n3Cc3ccccc32)cc1OC (stereo not shown) [Example 141, {10-[(2,2′-Dimethoxy-[1,1′-biphenyl]-4-yl)carbonyl]-10,11-dihydro-5H-pyrrolo[2,1-c][1,4]benzodiazepin-3-yl}[2-(3-pyridinyl)-1-piperidinyl]methanone]
93 | Cc1cc(C(=O)N2Cc3ccc(C(=O)N4CCCCC4c4cccnc4)n3Cc3ccccc32)ccc1-c1ccccc1C(F)(F)F (stereo not shown) [Example 142, (10-{[2-Methyl-2′-trifluoromethyl-[1,1′-biphenyl]-4-yl]carbonyl}-10,11-dihydro-5H-pyrrolo[2,1-c][1,4]benzodiazepin-3-yl)[2-(3-pyridinyl)-1-piperidinyl]methanone]
57 | COc1cc(C(=O)N2Cc3ccc(C(=O)N(C)CCc4ccccn4)n3Cc3ccccc32)ccc1-n1c(C)ccc1C [Example 144, 10-[4-(2,5-Dimethyl-1H-pyrrol-1-yl)-3-methoxybenzoyl]-N-methyl-N-[2-(pyridin-2-yl)ethyl]-10,11-dihydro-5H-pyrrolo[2,1-c][1,4]benzodiazepine-3-carboxamide]
22 | COc1cc(C(=O)N2Cc3ccc(C(=O)N4CCN(c5ccccn5)CC4)n3Cc3ccccc32)ccc1-n1c(C)ccc1C [Example 145, {10-[4-(2,5-Dimethyl-1H-pyrrol-1-yl)-3-methoxybenzoyl]-10,11-dihydro-5H-pyrrolo[2,1-c][1,4]benzodiazepin-3-yl}[4-(pyridin-2-yl)-1-piperazinyl]methanone]
38 | COc1cc(C(=O)N2Cc3ccc(C(=O)N4CCN(c5ccncc5)CC4)n3Cc3ccccc32)ccc1-n1c(C)ccc1C [Example 146, {10-[4-(2,5-Dimethyl-1H-pyrrol-1-yl)-3-methoxybenzoyl]-10,11-dihydro-5H-pyrrolo[2,1-c][1,4]benzodiazepin-3-yl}[4-(pyridin-4-yl)-1-piperazinyl]methanone]
64 | COc1cc(C(=O)N2Cc3ccc(C(=O)N(C)CCc4ccncc4)n3Cc3ccccc32)ccc1-n1c(C)ccc1C [Example 147, 10-[4-(2,5-Dimethyl-1H-pyrrol-1-yl)-3-methoxybenzoyl]-N-methyl-N-[2-(pyridin-4-yl)ethyl]-10,11-dihydro-5H-pyrrolo[2,1-c][1,4]benzodiazepine-3-carboxamide]

The remaining lines, values behind:

Structure (SMILES) | inhibition at 0.1 µM [%]
COc1ccccc1-c1ccc(C(=O)N2Cc3ccc(C(=O)N(C)CCc4ccncc4)n3Cc3ccccc32)cc1OC [Example 125, 10-[(2,2′-Dimethoxy-[1,1′-biphenyl]-4-yl)carbonyl]-N-methyl-N-[2-(4-pyridinyl)ethyl]-10,11-dihydro-5H-pyrrolo[2,1-c][1,4]benzodiazepine-3-carboxamide] | 94
COc1ccccc1-c1ccc(C(=O)N2Cc3ccc(C(=O)N(C)CCc4ccncc4)n3Cc3ccccc32)cc1C [Example 126, 10-[(2′-Methoxy-2-methyl-[1,1′-biphenyl]-4-yl)carbonyl]-N-methyl-N-[2-(4-pyridinyl)ethyl]-10,11-dihydro-5H-pyrrolo[2,1-c][1,4]benzodiazepine-3-carboxamide] | 93
Cc1ccccc1-c1ccc(C(=O)N2Cc3ccc(C(=O)N(C)CCc4ccncc4)n3Cc3ccccc32)cc1C [Example 127, 10-[(2,2′-Dimethyl-[1,1′-biphenyl]-4-yl)carbonyl]-N-methyl-N-[2-(4-pyridinyl)ethyl]-10,11-dihydro-5H-pyrrolo[2,1-c][1,4]benzodiazepine-3-carboxamide] | 102
COc1cccc(-c2ccc(C(=O)N3Cc4ccc(C(=O)N(C)CCc5ccncc5)n4Cc4ccccc43)cc2C)c1 [Example 128, 10-[(3′-Methoxy-2-methyl-[1,1′-biphenyl]-4-yl)carbonyl]-N-methyl-N-[2-(4-pyridinyl)ethyl]-10,11-dihydro-5H-pyrrolo[2,1-c][1,4]benzodiazepine-3-carboxamide] | 88
COc1ccccc1-c1ccc(C(=O)N2Cc3ccc(C(=O)N(C)CCc4ccncc4)n3Cc3ccccc32)cc1 [Example 129, 10-[(2′-Methoxy-[1,1′-biphenyl]-4-yl)carbonyl]-N-methyl-N-[2-(4-pyridinyl)ethyl]-10,11-dihydro-5H-pyrrolo[2,1-c][1,4]benzodiazepine-3-carboxamide] | 98
Cc1ccccc1-c1ccc(C(=O)N2Cc3ccc(C(=O)N(C)CCc4ccncc4)n3Cc3ccccc32)cc1 [Example 130, N-Methyl-10-[(2′-methyl-[1,1′-biphenyl]-4-yl)carbonyl]-N-[2-(4-pyridinyl)ethyl]-10,11-dihydro-5H-pyrrolo[2,1-c][1,4]benzodiazepine-3-carboxamide] | 0
COc1cc(C(=O)N2Cc3ccc(C(=O)N(C)CCc4ccncc4)n3Cc3ccccc32)ccc1-c1ccccc1C [Example 131, 10-[(2-Methoxy-2′-methyl-[1,1′-biphenyl]-4-yl)carbonyl]-N-methyl-N-[2-(4-pyridinyl)ethyl]-10,11-dihydro-5H-pyrrolo[2,1-c][1,4]benzodiazepine-3-carboxamide] | 99
COc1cc(-c2ccccc2C)c(Cl)cc1C(=O)N1Cc2ccc(C(=O)N(C)CCc3ccncc3)n2Cc2ccccc21 [Example 132, 10-[(6-Chloro-3-methoxy-2′-methyl-[1,1′-biphenyl]-4-yl)carbonyl]-N-methyl-N-[2-(4-pyridinyl)ethyl]-10,11-dihydro-5H-pyrrolo[2,1-c][1,4]benzodiazepine-3-carboxamide] | 99
COc1cccc(-c2cc(OC)c(C(=O)N3Cc4ccc(C(=O)N(C)CCc5ccncc5)n4Cc4ccccc43)cc2Cl)c1 [Example 133, 10-[(6-Chloro-3,3′-dimethoxy-[1,1′-biphenyl]-4-yl)carbonyl]-N-methyl-N-[2-(4-pyridinyl)ethyl]-10,11-dihydro-5H-pyrrolo[2,1-c][1,4]benzodiazepine-3-carboxamide] | 87
COc1cc(C(=O)N2Cc3ccc(C(=O)N(C)CCc4ccncc4)n3Cc3ccccc32)ccc1-c1cccc2ccccc12 [Example 134, 10-[3-Methoxy-4-(naphthalen-1-yl)benzoyl]-N-methyl-N-[2-(4-pyridinyl)ethyl]-10,11-dihydro-5H-pyrrolo[2,1-c][1,4]benzodiazepine-3-carboxamide] | 88
COc1cccc(-c2ccc(C(=O)N3Cc4ccc(C(=O)N(C)CCc5ccncc5)n4Cc4ccccc43)cc2OC)c1 [Example 135, 10-[(2,3′-Dimethoxy-[1,1′-biphenyl]-4-yl)carbonyl]-N-methyl-N-[2-(4-pyridinyl)ethyl]-10,11-dihydro-5H-pyrrolo[2,1-c][1,4]benzodiazepine-3-carboxamide] | 96
CN(CCc1ccncc1)C(=O)c1ccc2n1Cc1ccccc1N(C(=O)c1ccc(-c3cccc4ccccc34)cc1Cl)C2 [Example 136, 10-[2-Chloro-4-(naphthalen-1-yl)benzoyl]-N-methyl-N-[2-(4-pyridinyl)ethyl]-10,11-dihydro-5H-pyrrolo[2,1-c][1,4]benzodiazepine-3-carboxamide] | 44
Cc1cc(C(=O)N2Cc3ccc(C(=O)N(C)CCc4ccncc4)n3Cc3ccccc32)ccc1-c1ccccc1C(F)(F)F [Example 137, N-Methyl-10-{[2-methyl-2′-trifluoromethyl-[1,1′-biphenyl]-4-yl]carbonyl}-N-[2-(4-pyridinyl)ethyl]-10,11-dihydro-5H-pyrrolo[2,1-c][1,4]benzodiazepine-3-carboxamide] | 95
COc1ccccc1-c1ccc(C(=O)N2Cc3ccc(C(=O)N4CCCCC4c4cccnc4)n3Cc3ccccc32)cc1C (stereo not shown) [Example 138, {10-[(2′-Methoxy-2-methyl-[1,1′-biphenyl]-4-yl)carbonyl]-10,11-dihydro-5H-pyrrolo[2,1-c][1,4]benzodiazepin-3-yl}[2-(3-pyridinyl)-1-piperidinyl]methanone] | 97
